# Results from PMC9817970 (Cancers, 2022).
# What was measured:
# Experiment in all cases: Kinase panel profiling
# Format in all cases: biochemical
# Settings in all cases: 10 μM ATP
# ALK = molecular target: T1, ALK (Homo sapiens, UniProt Q9UM73)
# T1 construct: purchased Reaction Biology Corp
# Description: (§1) Kinase panel profiling was conducted by Reaction Biology Corp. (San Diego, CA, USA). A single dose (1.0 μM) of 6r was tested against 371 recombinant human kinases in the presence of 10 μM ATP.
# BRSK1 = molecular target: T2, BRSK1 (Homo sapiens, UniProt Q8TDC3)
# T2 construct: purchased Reaction Biology Corp
# Description: as §1
# CAMK1d = molecular target: T3, CAMK1d (Homo sapiens, UniProt Q8IU85)
# T3 construct: purchased Reaction Biology Corp
# Description: as §1
# CAMK2d = molecular target: T4, CAMK2d (Homo sapiens, UniProt Q13557)
# T4 construct: purchased Reaction Biology Corp
# Description: as §1
# CAMKK1 = molecular target: T5, CAMKK1 (Homo sapiens, UniProt Q8N5S9)
# T5 construct: purchased Reaction Biology Corp
# Description: as §1
# CDK1/cyclin A = molecular target: T6, CDK1/cyclin A (Homo sapiens, UniProt P06493)
# T6 construct: purchased Reaction Biology Corp
# T6 sequence (P06493 whole entry): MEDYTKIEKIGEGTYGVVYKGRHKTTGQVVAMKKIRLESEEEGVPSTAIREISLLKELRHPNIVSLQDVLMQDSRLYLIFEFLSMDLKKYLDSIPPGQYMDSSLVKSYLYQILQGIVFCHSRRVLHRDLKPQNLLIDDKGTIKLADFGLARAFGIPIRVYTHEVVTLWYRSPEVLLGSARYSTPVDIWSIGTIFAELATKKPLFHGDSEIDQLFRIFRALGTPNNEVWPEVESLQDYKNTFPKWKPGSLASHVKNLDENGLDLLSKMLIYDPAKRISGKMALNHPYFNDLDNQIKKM
# T6 sequence (P20248 whole entry partner): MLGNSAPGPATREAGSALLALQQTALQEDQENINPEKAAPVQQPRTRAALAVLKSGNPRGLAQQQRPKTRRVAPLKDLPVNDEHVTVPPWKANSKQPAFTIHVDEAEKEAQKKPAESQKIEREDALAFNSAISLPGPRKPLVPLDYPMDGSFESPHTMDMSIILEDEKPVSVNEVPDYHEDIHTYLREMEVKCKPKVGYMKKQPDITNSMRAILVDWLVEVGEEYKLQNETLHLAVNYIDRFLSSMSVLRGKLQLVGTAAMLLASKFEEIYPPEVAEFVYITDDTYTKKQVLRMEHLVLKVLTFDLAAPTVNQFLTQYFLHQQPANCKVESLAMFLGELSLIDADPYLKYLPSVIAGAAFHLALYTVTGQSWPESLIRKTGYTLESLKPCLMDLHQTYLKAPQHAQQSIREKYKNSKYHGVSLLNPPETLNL
# Description: as §1
# CDK2/cyclin O = molecular target: T7, CDK2/cyclin O (Homo sapiens, UniProt P24941)
# T7 construct: purchased Reaction Biology Corp
# Description: as §1
# CDK7/cyclin H = molecular target: T8, CDK7/cyclin H (Homo sapiens, UniProt P50613)
# T8 construct: purchased Reaction Biology Corp
# Description: as §1
# CDK9/cyclin T1 = molecular target: T9, CDK9/cyclin T1 (Homo sapiens, UniProt P50750)
# T9 construct: purchased Reaction Biology Corp
# T9 sequence (P50750 whole entry): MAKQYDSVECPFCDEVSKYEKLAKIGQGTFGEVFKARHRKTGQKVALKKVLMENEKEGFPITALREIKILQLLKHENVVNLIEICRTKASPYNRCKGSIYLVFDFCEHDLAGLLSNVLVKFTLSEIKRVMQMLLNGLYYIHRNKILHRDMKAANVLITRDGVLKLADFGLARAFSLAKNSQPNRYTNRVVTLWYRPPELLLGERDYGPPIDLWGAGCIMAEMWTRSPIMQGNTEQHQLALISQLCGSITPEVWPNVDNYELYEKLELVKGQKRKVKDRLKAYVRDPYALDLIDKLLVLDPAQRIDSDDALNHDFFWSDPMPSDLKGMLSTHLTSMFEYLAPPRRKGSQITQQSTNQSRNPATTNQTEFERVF
# T9 sequence (O60563 whole entry partner): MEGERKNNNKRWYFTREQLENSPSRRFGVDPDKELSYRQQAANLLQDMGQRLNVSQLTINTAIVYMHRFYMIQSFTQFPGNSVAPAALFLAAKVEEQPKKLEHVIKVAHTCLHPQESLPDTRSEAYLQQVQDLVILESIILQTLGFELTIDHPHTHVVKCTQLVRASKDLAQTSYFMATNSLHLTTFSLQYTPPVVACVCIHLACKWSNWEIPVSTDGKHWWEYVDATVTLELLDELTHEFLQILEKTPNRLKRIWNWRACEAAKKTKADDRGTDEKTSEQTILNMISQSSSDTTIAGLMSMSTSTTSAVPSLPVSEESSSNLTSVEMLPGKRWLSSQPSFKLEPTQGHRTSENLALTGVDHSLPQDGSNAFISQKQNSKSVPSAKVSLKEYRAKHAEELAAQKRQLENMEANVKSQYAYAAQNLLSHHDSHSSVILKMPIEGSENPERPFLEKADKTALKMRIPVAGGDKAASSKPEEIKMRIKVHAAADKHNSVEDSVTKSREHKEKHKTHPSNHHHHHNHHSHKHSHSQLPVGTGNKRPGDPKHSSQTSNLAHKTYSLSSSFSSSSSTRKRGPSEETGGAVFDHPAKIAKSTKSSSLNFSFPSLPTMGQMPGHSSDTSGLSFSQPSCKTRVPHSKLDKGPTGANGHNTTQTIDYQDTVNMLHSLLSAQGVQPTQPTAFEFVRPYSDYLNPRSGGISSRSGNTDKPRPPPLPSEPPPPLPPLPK
# Description: as §1
# CHK2 = molecular target: T10, CHK2 (Homo sapiens, UniProt O96017)
# T10 construct: purchased Reaction Biology Corp
# Description: as §1
# CK1d = molecular target: T11, CK1d (Homo sapiens, UniProt P48730)
# T11 construct: purchased Reaction Biology Corp
# Description: as §1
# DCAMKL2 = molecular target: T12, DCAMKL2 (Homo sapiens, UniProt Q8N568)
# T12 construct: purchased Reaction Biology Corp
# Description: as §1
# DYRK4 = molecular target: T13, DYRK4 (Homo sapiens, UniProt Q9NR20)
# T13 construct: purchased Reaction Biology Corp
# Description: as §1
# EPHB2 = molecular target: T14, EPHB2 (Homo sapiens, UniProt P29323)
# T14 construct: purchased Reaction Biology Corp
# Description: as §1
# ERN1/IRE1 = molecular target: T15, ERN1/IRE1 (Homo sapiens, UniProt O75460)
# T15 construct: purchased Reaction Biology Corp
# Description: as §1
# FGFR2 = molecular target: T16, FGFR2 (Homo sapiens, UniProt P21802)
# T16 construct: purchased Reaction Biology Corp
# Description: as §1
# FGFR4 = molecular target: T17, FGFR4 (Homo sapiens, UniProt P22455)
# T17 construct: purchased Reaction Biology Corp
# Description: as §1
# GSK3a = molecular target: T18, GSK3a (Homo sapiens, UniProt P49840)
# T18 construct: purchased Reaction Biology Corp
# Description: as §1
# IGF1R = molecular target: T19, IGF1R (Homo sapiens, UniProt P08069)
# T19 construct: purchased Reaction Biology Corp
# Description: as §1
# IKKb/IKBKB = molecular target: T20, IKKb/IKBKB (Homo sapiens, UniProt O14920)
# T20 construct: purchased Reaction Biology Corp
# Description: as §1
# LIMK1 = molecular target: T21, LIMK1 (Homo sapiens, UniProt P53667)
# T21 construct: purchased Reaction Biology Corp
# T21 sequence (P53667 whole entry): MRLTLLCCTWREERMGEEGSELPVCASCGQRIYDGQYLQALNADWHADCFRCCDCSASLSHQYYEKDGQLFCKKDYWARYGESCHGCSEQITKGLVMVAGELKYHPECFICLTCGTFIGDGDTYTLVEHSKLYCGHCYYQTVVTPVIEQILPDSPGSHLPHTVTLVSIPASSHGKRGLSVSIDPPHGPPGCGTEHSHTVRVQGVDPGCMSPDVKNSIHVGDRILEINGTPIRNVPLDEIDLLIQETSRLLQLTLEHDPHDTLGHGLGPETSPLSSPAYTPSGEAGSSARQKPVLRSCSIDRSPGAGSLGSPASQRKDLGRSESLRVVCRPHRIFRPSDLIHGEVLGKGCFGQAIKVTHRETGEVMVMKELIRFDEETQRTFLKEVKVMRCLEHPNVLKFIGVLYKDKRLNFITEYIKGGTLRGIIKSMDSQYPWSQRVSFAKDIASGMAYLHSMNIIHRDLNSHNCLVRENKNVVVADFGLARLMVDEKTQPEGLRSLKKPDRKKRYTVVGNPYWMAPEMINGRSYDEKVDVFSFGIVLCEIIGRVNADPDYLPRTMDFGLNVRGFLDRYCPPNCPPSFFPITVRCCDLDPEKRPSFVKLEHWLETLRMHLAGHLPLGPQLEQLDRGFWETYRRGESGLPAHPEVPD
# Description: as §1
# LRRK2 = molecular target: T22, LRRK2 (Homo sapiens, UniProt Q5S007)
# T22 construct: purchased Reaction Biology Corp
# T22 sequence (Q5S007 whole entry): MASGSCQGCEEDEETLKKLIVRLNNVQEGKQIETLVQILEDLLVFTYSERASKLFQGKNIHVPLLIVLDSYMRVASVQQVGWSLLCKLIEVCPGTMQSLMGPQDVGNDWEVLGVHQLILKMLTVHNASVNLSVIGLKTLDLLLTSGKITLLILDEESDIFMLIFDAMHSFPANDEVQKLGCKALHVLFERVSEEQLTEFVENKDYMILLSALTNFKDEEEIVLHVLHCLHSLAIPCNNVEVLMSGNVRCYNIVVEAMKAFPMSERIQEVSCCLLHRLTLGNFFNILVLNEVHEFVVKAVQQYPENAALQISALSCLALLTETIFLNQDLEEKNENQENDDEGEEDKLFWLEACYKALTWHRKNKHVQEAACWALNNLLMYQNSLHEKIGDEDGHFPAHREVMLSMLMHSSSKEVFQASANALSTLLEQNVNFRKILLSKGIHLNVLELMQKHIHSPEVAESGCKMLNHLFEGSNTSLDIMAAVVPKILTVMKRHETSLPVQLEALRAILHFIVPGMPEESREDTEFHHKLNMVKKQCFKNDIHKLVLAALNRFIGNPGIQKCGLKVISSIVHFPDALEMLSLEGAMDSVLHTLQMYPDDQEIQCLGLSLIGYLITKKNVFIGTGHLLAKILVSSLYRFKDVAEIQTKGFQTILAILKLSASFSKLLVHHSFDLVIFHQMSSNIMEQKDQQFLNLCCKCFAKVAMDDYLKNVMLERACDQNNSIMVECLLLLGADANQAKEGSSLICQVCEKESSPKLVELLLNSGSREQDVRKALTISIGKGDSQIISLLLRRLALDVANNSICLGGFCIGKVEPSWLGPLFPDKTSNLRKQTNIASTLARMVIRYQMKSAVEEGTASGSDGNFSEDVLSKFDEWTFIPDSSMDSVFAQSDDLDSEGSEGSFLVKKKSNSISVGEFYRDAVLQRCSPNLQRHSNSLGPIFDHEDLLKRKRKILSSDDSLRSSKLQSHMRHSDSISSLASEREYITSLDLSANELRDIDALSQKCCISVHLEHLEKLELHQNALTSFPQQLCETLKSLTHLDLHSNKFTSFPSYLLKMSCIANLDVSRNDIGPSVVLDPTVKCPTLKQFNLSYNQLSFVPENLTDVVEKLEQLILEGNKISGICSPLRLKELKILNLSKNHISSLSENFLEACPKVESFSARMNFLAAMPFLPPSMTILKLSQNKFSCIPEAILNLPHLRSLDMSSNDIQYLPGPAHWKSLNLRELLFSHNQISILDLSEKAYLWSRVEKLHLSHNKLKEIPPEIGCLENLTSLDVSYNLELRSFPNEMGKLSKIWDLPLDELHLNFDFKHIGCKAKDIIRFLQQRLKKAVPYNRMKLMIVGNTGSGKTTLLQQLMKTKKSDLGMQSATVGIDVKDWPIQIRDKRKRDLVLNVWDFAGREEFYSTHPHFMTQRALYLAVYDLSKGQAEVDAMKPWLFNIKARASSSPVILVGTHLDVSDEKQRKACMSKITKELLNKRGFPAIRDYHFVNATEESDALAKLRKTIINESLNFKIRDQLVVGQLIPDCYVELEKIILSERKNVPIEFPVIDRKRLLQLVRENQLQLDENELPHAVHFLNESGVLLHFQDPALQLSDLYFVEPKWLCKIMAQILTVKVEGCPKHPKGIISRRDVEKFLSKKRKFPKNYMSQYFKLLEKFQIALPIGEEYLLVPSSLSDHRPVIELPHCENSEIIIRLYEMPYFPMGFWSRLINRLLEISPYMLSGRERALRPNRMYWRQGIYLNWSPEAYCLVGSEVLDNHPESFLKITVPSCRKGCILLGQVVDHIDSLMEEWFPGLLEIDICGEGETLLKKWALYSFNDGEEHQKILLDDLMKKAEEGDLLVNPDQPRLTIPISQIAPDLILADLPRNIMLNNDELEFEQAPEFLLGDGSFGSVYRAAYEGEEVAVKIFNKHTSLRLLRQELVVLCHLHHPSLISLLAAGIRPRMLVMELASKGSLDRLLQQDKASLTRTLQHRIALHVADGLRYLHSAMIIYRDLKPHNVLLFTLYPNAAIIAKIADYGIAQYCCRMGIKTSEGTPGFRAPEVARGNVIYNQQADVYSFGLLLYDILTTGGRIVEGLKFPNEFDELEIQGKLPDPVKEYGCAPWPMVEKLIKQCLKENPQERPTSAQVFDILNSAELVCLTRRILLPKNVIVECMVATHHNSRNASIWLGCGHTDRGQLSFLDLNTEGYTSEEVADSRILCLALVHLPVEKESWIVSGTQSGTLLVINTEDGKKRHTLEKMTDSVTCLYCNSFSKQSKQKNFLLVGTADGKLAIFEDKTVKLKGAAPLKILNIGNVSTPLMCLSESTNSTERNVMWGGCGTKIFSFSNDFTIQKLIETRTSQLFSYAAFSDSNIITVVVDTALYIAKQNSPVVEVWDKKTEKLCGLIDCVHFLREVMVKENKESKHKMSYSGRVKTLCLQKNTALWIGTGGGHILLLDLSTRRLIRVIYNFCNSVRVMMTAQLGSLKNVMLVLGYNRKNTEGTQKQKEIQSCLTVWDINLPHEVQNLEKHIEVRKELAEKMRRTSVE
# Description: as §1
# MARK2/PAR-1Ba = molecular target: T23, MARK2/PAR-1Ba (Homo sapiens, UniProt Q7KZI7)
# T23 construct: purchased Reaction Biology Corp
# Description: as §1
# MARK4 = molecular target: T24, MARK4 (Homo sapiens, UniProt Q96L34)
# T24 construct: purchased Reaction Biology Corp
# Description: as §1
# MST3/STK24 = molecular target: T25, MST3/STK24 (Homo sapiens, UniProt Q9Y6E0)
# T25 construct: purchased Reaction Biology Corp
# Description: as §1
# MYLK4 = molecular target: T26, MYLK4 (Homo sapiens, UniProt Q86YV6)
# T26 construct: purchased Reaction Biology Corp
# Description: as §1
# NEK11 = molecular target: T27, NEK11 (Homo sapiens, UniProt Q8NG66)
# T27 construct: purchased Reaction Biology Corp
# Description: as §1
# NEK4 = molecular target: T28, NEK4 (Homo sapiens, UniProt P51957)
# T28 construct: purchased Reaction Biology Corp
# Description: as §1
# NEK9 = molecular target: T29, NEK9 (Homo sapiens, UniProt Q8TD19)
# T29 construct: purchased Reaction Biology Corp
# Description: as §1
# P38a/MAPK14 = molecular target: T30, P38a/MAPK14 (Homo sapiens, UniProt Q16539)
# T30 construct: purchased Reaction Biology Corp
# Description: as §1
# PKCzeta = molecular target: T31, PKCzeta (Homo sapiens, UniProt Q05513)
# T31 construct: purchased Reaction Biology Corp
# Description: as §1
# PKG1b = molecular target: T32, PKG1b (Homo sapiens, UniProt Q13976)
# T32 construct: purchased Reaction Biology Corp
# Description: as §1
# PLK4/SAK = molecular target: T33, PLK4/SAK (Homo sapiens, UniProt O00444)
# T33 construct: purchased Reaction Biology Corp
# Description: as §1
# RIPK3 = molecular target: T34, RIPK3 (Homo sapiens, UniProt Q9Y572)
# T34 construct: purchased Reaction Biology Corp
# Description: as §1
# RSK4 = molecular target: T35, RSK4 (Homo sapiens, UniProt Q9UK32)
# T35 construct: purchased Reaction Biology Corp
# Description: as §1
# SRPK2 = molecular target: T36, SRPK2 (Homo sapiens, UniProt P78362)
# T36 construct: purchased Reaction Biology Corp
# Description: as §1
# STK32B/YANK2 = molecular target: T37, STK32B/YANK2 (Homo sapiens, UniProt Q9NY57)
# T37 construct: purchased Reaction Biology Corp
# Description: as §1
# TAK1 = molecular target: T38, TAK1 (Homo sapiens, UniProt O43318)
# T38 construct: purchased Reaction Biology Corp
# Description: as §1
# TRKB = molecular target: T39, TRKB (Homo sapiens, UniProt Q16620)
# T39 construct: purchased Reaction Biology Corp
# Description: as §1
# TSSK2 = molecular target: T40, TSSK2 (Homo sapiens, UniProt Q96PF2)
# T40 construct: purchased Reaction Biology Corp
# Description: as §1
# TXK = molecular target: T41, TXK (Homo sapiens, UniProt P42681)
# T41 construct: purchased Reaction Biology Corp
# Description: as §1
# VRK1 = molecular target: T42, VRK1 (Homo sapiens, UniProt Q99986)
# T42 construct: purchased Reaction Biology Corp
# Description: as §1
# WNK1 = molecular target: T43, WNK1 (Homo sapiens, UniProt Q9H4A3)
# T43 construct: purchased Reaction Biology Corp
# Description: as §1
structure (smiles),measurement,setting,value
Cc1ccc(NC(=O)c2ccc(CN3CCN(C)CC3)c(C(F)(F)F)c2)cc1-c1cnc2sc(N)nc2c1 [6r],inhibition at 1 µM,ALK,0%
same,inhibition at 1 µM,BRSK1,0%
same,inhibition at 1 µM,CAMK1d,14.3%
same,inhibition at 1 µM,CAMK2d,0%
same,inhibition at 1 µM,CAMKK1,7.2%
same,inhibition at 1 µM,CDK1/cyclin A,3.8%
same,inhibition at 1 µM,CDK2/cyclin O,12.3%
same,inhibition at 1 µM,CDK7/cyclin H,3.2%
same,inhibition at 1 µM,CDK9/cyclin T1,0%
same,inhibition at 1 µM,CHK2,4.8%
same,inhibition at 1 µM,CK1d,27.3%
same,inhibition at 1 µM,DCAMKL2,0%
same,inhibition at 1 µM,DYRK4,0%
same,inhibition at 1 µM,EPHB2,38.9%
same,inhibition at 1 µM,ERN1/IRE1,8%
same,inhibition at 1 µM,FGFR2,43%
same,inhibition at 1 µM,FGFR4,30.1%
same,inhibition at 1 µM,GSK3a,7.4%
same,inhibition at 1 µM,IGF1R,0%
same,inhibition at 1 µM,IKKb/IKBKB,0%
same,inhibition at 1 µM,LIMK1,87.2%
same,inhibition at 1 µM,LRRK2,5.1%
same,inhibition at 1 µM,MARK2/PAR-1Ba,0%
same,inhibition at 1 µM,MARK4,2%
same,inhibition at 1 µM,MST3/STK24,12.5%
same,inhibition at 1 µM,MYLK4,4.6%
same,inhibition at 1 µM,NEK11,18.3%
same,inhibition at 1 µM,NEK4,25.6%
same,inhibition at 1 µM,NEK9,0%
same,inhibition at 1 µM,P38a/MAPK14,96.5%
same,inhibition at 1 µM,PKCzeta,0%
same,inhibition at 1 µM,PKG1b,3.3%
same,inhibition at 1 µM,PLK4/SAK,10.4%
same,inhibition at 1 µM,RIPK3,82.5%
same,inhibition at 1 µM,RSK4,1.8%
same,inhibition at 1 µM,SRPK2,9%
same,inhibition at 1 µM,STK32B/YANK2,0%
same,inhibition at 1 µM,TAK1,12.8%
same,inhibition at 1 µM,TRKB,10.6%
same,inhibition at 1 µM,TSSK2,0%
same,inhibition at 1 µM,TXK,16.8%
same,inhibition at 1 µM,VRK1,1.6%
same,inhibition at 1 µM,WNK1,6.9%
